Source: patent US20100254942A1, “HEPATITIS C ANTIVIRAL COMPOSITIONS AND METHODS” (BIOTRON LIMITED, priority 2007, published 2010)
“Also recorded” adds a separate entry of the source. Like-named read-outs stand apart in the source and are kept apart here.

What was measured:
[1] = target: T1, HCV p7 ion channel protein (Hepatitis C virus genotype 1a, UniProt P27958); experiment: Bacterial bioassay: growth of E. coli expressing HCV p7; type: cell-based; set-up: scale not given here; settings: cumulative averaged scores; result above zero indicates potential anti-viral activity
T1 construct: codons were optimised for expression of the p7 protein in E. coli; expressed in transfected cells; host or cells: E. coli carrying plasmid pPLp7 (pPL451 backbone, temperature-inducible)
T1 sequence (P27958 747-809): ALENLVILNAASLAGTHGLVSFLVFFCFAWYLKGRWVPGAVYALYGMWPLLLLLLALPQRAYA
Source text: The bacterial bioassay method used in the present example to test the anti-viral activity of the compounds against different viral targets was described in detail in PCT/2004/000866, incorporated in its entirety herein by reference. This assay is used in conjunction with the GBV-B and BVDV assays described below, to ensure that all active compounds are identified, some of which are active in one or the other of the assays, while some compounds may be active in both assays.
Briefly, the bacterial bio-assay for screening potential anti-HCV compounds is based on the HCV p7 ion channel protein. p7 is a small membrane protein encoded by HCV, which has a functional activity supporting viral growth and/or replication.
The p7-encoding synthetic cDNA fragment cDp7.coli, in which codons were optimised for expression of the p7 protein in E. coli, was cloned into the expression plasmid pPL451, creating the vector pPLp7, in which p7 expression is temperature inducible, as described in detail in PCT/2004/000866. Inhibition of the growth of E. coli cells expressing p7 at 37° C. was observed as an indicator of p7 ion channel function dissipating the normal Na+gradient maintained by the bacterial cells. Halos of growth around a particular compound application site indicate that the compound has inhibited expression of the p7 ion channel activity that prevents growth in the absence of the compound.
The positive controls were used in this assay to ensure that the assay was working rather than for comparison of relative activities of the compounds.

GBV-B = GBV-B replication in primary marmoset hepatocytes (viral RNA by real-time RT-PCR); type: cell-based
Source text: GBV-B is the most closely related flavivirus to HCV, sharing 27-33% nucleotide sequence identity and 28% amino acid similarity over the complete polypeptide sequence. This virus represents an excellent surrogate system for HCV because it infects small New World primates and replicates efficiently in vitro in primary marmoset hepatocyte (PMH) cultures. The GBV-B homologue of HCV p7 is called p13. It is shown herein that a synthetic peptide corresponding to the two C-terminal transmembrane helices of p13 (which share the greatest homology to p7) forms a cation selective ion channel that, like the p7 channel, is blocked by amantadine (Premkumar et al., 2006). […] These observations confirm that the two homologous channels share similar, but not identical, structural features.
Selected BIT compounds—identified by bacterial assay screening for inhibitors of HCV p7—were tested for ability to inhibit GBV-B replication in primary marmoset hepatocytes (see FIG. 1). The hepatocytes were inoculated 3-days after plating with 10× TCID50 of GBV-B positive marmoset serum. […] was adsorbed for two hours, and then the cells were washed three times and cultured for two days in fresh serum-free medium (SFM) supplemented with hormones and growth factors. Virus released to the culture supernatant was measured as viral RNA copy number, as determined by real-time RT-PCR. […]

[2] = test system: bovine viral diarrhea virus (BVDV) strain NADL; experiment: BVDV CPE-inhibition assay in MDBK cells; type: cell-based; settings: for EC50: read-out: EC50
Protocol: The antiviral evaluation of selected BIT compounds against BVDV was outsourced to Southern Research Institute (SRI), Fredrick Md. USA. A simple cytoprotection format is used in which the antiviral efficacy of the compounds is assessed by their ability to reduce the cytopathic effect of BVDV infection in Madin-Darby bovine kidney cells (Buckwold et al., 2003)
(§1) A virus-induced cytopathogenic effects (CPE)-inhibition assay procedure was employed to evaluate compounds for antiviral activity against bovine viral diarrhea virus (BVDV) strain NADL, in Madin-Darby bovine kidney (MDBK) cells passaged in T-75 flasks (1, 2). Antiviral assays were designed to test six half-log concentrations of each compound in triplicate against the challenge virus. Cell controls (CC) containing medium alone, virus-infected cell controls (VC) containing medium and virus, drug cytotoxicity controls containing medium and each drug concentration, reagent controls containing culture medium only (no cells), and drug colorimetric controls containing drug and medium (no cells) are run simultaneously with the test samples. Human interferon-α 2b was used as a positive control compound. On the day preceding the assay, the cells were trypsinized, pelleted, counted and resuspended at 1×10^4/well in tissue culture medium in 96-well flat bottom tissue culture plates in a volume of 100 μl per well. One day following plating of cells, the wells were washed and the medium was replaced with complete medium (2% serum) containing various concentrations of test compound diluted in medium in a half-log series. A pre-titered aliquot of virus was removed from the freezer (−80° C.) just before each experiment. The virus was diluted into tissue culture medium such that the amount of virus added to each well would give complete cell killing at 6-7 days post-infection. The plates were incubated at 37° C. in a humidified atmosphere containing 5% CO2 until maximum CPE is observed in the untreated virus control cultures (˜day 7) Inhibition of CPE by the compound was determined using Cell Titer 96 (Promega). A colorimetric method for determining the number of viable cells was used. A computer program was utilized to calculate the percent of CPE reduction of the virus-infected wells and the percentage cell viability of uninfected drug control wells. […] A therapeutic (selectivity) index (TI50) for each active compound was determined by dividing the TC50 by the IC50.
(§2) Drug cytotoxicity was measured separately in uninfected cells. Eleven BIT compounds were tested in the first experiment in which the compounds were added to the cells just prior to infection and were maintained throughout the entire experiment. Two of them, BIT225 and BIT314 returned sub-micromolar IC50 values (see Table 2 below).

[3] = test system: Madin-Darby bovine kidney (MDBK) cells; experiment: Drug cytotoxicity in uninfected MDBK cells; type: cell-based; settings: uninfected MDBK cells
Source text: as §1, §2

[4] = test system: bovine viral diarrhea virus (BVDV) strain NADL; settings: well known from the literature; cited from earlier work

**Q.** Which results are given for `Cn1cc(-c2cccc3cc(C(=O)NC(=N)N)ccc23)cn1` [BIT225, 5-(1-methylpyrazol-4-yl)2-naphthoylguanidine]?
**A.** Average Bacterial Assay Score HCV p7 [1]: 1.20; Virus in the culture supernatant (viral RNA copy number) (GBV-B; cells pre-treated with 20 μM): no virus was detected; Efficacy when compounds were added post-inoculation (GBV-B; post-treatment versus pre-treatment): reduced somewhat; IC50 ([2]; BVDV in MDBK cells, compound added just prior to infection and maintained, N/A = not achieved, read-out: IC50): 530 nM; EC50 ([2]; Bovine viral diarrhea virus isolates and strains, MDBK, drug tested individually against BVDV): 314 nM; EC50 ([2]; Bovine viral diarrhea virus isolates and strains, MDBK, in the presence of 5 IU/ml IFNα, Hill slope constrained): 92 nM; EC50 ([2]; Bovine viral diarrhea virus isolates and strains, MDBK, in the presence of 5 IU/ml IFNα, variable Hill slope): 149 nM; EC50 ([2]; Bovine viral diarrhea virus isolates and strains, MDBK, in the presence of 10 IU/ml IFNα, Hill slope constrained): 71 nM; EC50 ([2]; Bovine viral diarrhea virus isolates and strains, MDBK, in the presence of 10 IU/ml IFNα, variable Hill slope): 125 nM; inhibition at 0.031 µM ([2]; Bovine viral diarrhea virus isolates and strains, MDBK, 31 nM BIT225 alone): ~5%; IC50 ([2]; Bovine viral diarrhea virus isolates and strains, MDBK, Table 2a, read-out: BVDV IC50): 1270 nM; IC50 ([2]; Bovine viral diarrhea virus isolates and strains, MDBK, subsequent repeat assay, read-out: IC50): 330 nM; IC50 values (in words) ([2]; first experiment, Table 2): sub-micromolar; TC50 [3]: 11600 nM

**Q.** With `NC(=O)c1ncn([C@@H]2O[C@H](CO)[C@@H](O)[C@H]2O)n1` [Ribavirin, reference compound] as the molecule, how does the antiviral activity ([2]; 1.25 μg/ml Ribavirin alone) read?
**A.** no antiviral activity

**Q.** And the “Antiviral activity on its own” value ([2]; alone, range up to 20 μg/ml)?
**A.** only very little antiviral activity was detected; also recorded: no antiviral activity

**Q.** And the “activity against BVDV on its own” value [4]?
**A.** very little activity
